These results are taken from publication PMC2895411 (Journal of medicinal chemistry, 2010).

Entries after “also recorded” stand apart in the source; their conditions may differ.

One experiment addresses T1, human TLR7 (Homo sapiens, UniProt Q9NYK1).
T1 sequence (Q9NYK1 27-1049): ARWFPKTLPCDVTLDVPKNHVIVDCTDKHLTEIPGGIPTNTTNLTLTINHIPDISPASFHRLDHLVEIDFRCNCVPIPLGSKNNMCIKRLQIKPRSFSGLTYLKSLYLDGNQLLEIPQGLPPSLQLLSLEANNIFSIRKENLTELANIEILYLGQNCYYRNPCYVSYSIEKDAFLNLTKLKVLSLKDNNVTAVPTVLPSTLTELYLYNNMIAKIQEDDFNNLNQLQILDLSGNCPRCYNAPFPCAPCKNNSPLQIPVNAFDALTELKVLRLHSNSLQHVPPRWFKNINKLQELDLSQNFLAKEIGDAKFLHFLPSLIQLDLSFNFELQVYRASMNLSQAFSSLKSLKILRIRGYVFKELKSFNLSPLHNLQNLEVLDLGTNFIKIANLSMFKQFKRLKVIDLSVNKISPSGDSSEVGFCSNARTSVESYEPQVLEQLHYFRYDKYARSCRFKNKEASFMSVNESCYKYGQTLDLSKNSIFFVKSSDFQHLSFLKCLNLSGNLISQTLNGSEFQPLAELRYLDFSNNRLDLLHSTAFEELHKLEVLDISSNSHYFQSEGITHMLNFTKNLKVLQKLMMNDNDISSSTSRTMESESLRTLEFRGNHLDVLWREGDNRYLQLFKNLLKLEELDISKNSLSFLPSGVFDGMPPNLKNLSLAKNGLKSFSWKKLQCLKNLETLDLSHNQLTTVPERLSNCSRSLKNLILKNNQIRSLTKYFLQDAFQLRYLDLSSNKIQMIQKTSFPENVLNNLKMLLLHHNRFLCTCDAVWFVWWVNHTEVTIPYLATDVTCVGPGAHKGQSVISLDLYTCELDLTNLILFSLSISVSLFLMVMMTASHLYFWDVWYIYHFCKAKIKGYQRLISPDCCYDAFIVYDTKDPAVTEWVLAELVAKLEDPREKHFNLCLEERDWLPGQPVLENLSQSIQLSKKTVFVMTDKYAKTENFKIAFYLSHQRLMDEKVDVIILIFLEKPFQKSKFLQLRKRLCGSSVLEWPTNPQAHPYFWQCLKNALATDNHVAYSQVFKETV
The experiment is described as follows: NF-κB induction, human TLR7-specific reporter gene assay. It is filed as cell-based.
Conditions: not given
A general note: Reporter assays use an easily measured gene product as a stand-in for the process of interest.
In the case of `CC(C)Cn1cnc2c(N)nc3ccccc3c21` [Compound 1, Imiquimod, reference compound], the concentration giving a half-maximal response (EC50) (commonly the concentration at which the effect is half-maximal) was approximately 2 µM.

Still in this experiment, the particulars now being: fold greater activity than 2.
On to `CCCCCc1nc2c(N)nc3ccccc3c2n1Cc1ccccc1` [Compound 32, 1-Benzyl-2-pentyl-1H-imidazo[4,5-c]quinolin-4-amine], for which the “TLR7 activity relative to compound 2” value is reported as “twenty-fold greater”.

Still in this experiment, the particulars now being: human TLR7 reporter gene assay.
`CCN(CCOCCOCCN)Cc1nc2c(N)nc3ccccc3c2n1CC(C)(C)O` [Compound 11, 1-(4-Amino-2-(((2-(2-(2-aminoethoxy)ethoxy)ethyl) (ethyl)amino)methyl)-1H-imidazo[4,5-c]quinolin-1-yl)-2-methylpropan-2-ol]: the “TLR7-agonistic activity, result in words” value is “completely inactive”.

Turning to `C#CCCc1nc2c(N)nc3ccccc3c2n1Cc1ccccc1` [Compound 43, 1-Benzyl-2-(but-3-ynyl)-1H-imidazo[4,5-c]quinolin-4-amine], the “TLR7-agonistic activity, result in words” value is “decrease in potency”.

As for `CCN(CC)Cc1nc2c(N)nc3ccccc3c2n1CC(C)(C)O` [Compound 3, 1-(4-Amino-2-((diethylamino)methyl)-1H-imidazo[4,5-c]quinolin-1-yl)-2-methylpropan-2-ol], the “TLR7-agonistic activity, result in words” value was “partial activity”.

For the compound `CCCNC(=O)n1c(=O)n(Cc2ccccc2)c2c3ccccc3ncc21` [Compound 57, 1-Benzyl-2-oxo-N-propyl-1H-imidazo[4,5-c]quinoline-3(2H)-carboxamide], the “TLR7-agonistic activity, result in words” value was “completely inactive”.

With `CCCCCCCCCCCCCCCC(=O)N(CC)Cc1nc2c(N)nc3ccccc3c2n1CC(C)(C)O` [Compound 5, N-((4-Amino-1-(2-hydroxy-2-methylpropyl)-1H-imidazo[4,5-c]quinolin-2-yl)methyl)-N-ethylpalmitamide], the “TLR7-agonistic activity, result in words” value is listed as “bereft of activity”.

Consider `CCCCCCCCCCCNCc1nc2c(N)nc3ccccc3c2n1CC(C)(C)O` [Compound 22, 1-(4-Amino-2-((undecylamino)methyl)-1H-imidazo[4,5-c]quinolin-1-yl)-2-methylpropan-2-ol], for which the “TLR7-agonistic activity, result in words” value is “complete loss of activity; also recorded: completely inactive”.

Take `CCCCc1nc2c(NN)nc3ccccc3c2n1Cc1ccccc1` [Compound 49, 1-Benzyl-2-butyl-4-hydrazinyl-1H-imidazo[4,5-c]quinoline]: the “TLR7-agonistic activity, result in words” value is “substantially weaker”.

Consider `CCCCc1nc2cnc3ccccc3c2n1Cc1ccccc1` [Compound 50, 1-Benzyl-2-butyl-1H-imidazo[4,5-c]quinoline], for which the “TLR7-agonistic activity, result in words” value is “completely inactive”.

Consider `CCCCCc1nc2c(O)nc3ccccc3c2n1Cc1ccccc1` [Compound 46, 1-Benzyl-2-pentyl-1H-imidazo[4,5-c]quinolin-4-ol], for which the “TLR7-agonistic activity, result in words” value was “completely inactive”.

For `C=CCCc1nc2c(N)nc3ccccc3c2n1Cc1ccccc1` [Compound 38, 1-Benzyl-2-(but-3-enyl)-1H-imidazo[4,5-c]quinolin-4-amine], the “TLR7-agonistic activity, result in words” value is “decrease in potency”.

For `CCCCCc1nc2c(Cl)nc3ccccc3c2n1Cc1ccccc1` [Compound 44, 1-Benzyl-4-chloro-2-pentyl-1H-imidazo[4,5-c]quinoline], the “TLR7-agonistic activity, result in words” value is “completely inactive”.

Turning to `Clc1nc2ccccc2c2c1nnn2Cc1ccccc1` [Compound 55, 1-Benzyl-4-chloro-1H-[1,2,3]triazolo[4,5-c]quinoline], the “TLR7-agonistic activity, result in words” value is “completely inactive”.

As to `CCN(Cc1nc2c(N)nc3ccccc3c2n1CC(C)(C)O)C(C)=O` [Compound 4, N-((4-Amino-1-(2-hydroxy-2-methylpropyl)-1H-imidazo[4,5-c]quinolin-2-yl)methyl)-N-ethylacetamide], the “TLR7-agonistic activity, result in words” value is reported as “bereft of activity”.

Consider `CCNCc1nc2c(N)nc3ccccc3c2n1Cc1ccccc1` [Compound 52, 1-Benzyl-2-((ethylamino)methyl)-1H-imidazo[4,5-c]quinolin-4-amine], for which the “TLR7-agonistic activity, result in words” value is reported as “very active”.

Turning to `CCCCCc1nc2c(-c3ccccc3)nc3ccccc3c2n1Cc1ccccc1` [Compound 47, 1-Benzyl-2-pentyl-4-phenyl-1H-imidazo[4,5-c]quinoline], the “TLR7-agonistic activity, result in words” value is “completely inactive”.

In the case of `CCN(CCCNC(=S)NCCCNCCCCNCCCN)Cc1nc2c(N)nc3ccccc3c2n1CC(C)(C)O` [Compound 16, 1-(3-(((4-amino-1-(2-hydroxy-2-methylpropyl)-1H-imidazo[4,5-c]quinolin-2-yl)methyl)(ethyl)amino)propyl)-3-(3-(4-(3-aminopropylamino)butylamino)propyl) thiourea], the “TLR7-agonistic activity, result in words” value was “inactive”.

Turning to `CCCCc1nc2c(NO)nc3ccccc3c2n1Cc1ccccc1` [Compound 48, N-(1-Benzyl-2-butyl-1H-imidazo[4,5-c]quinolin-4-yl)hydroxylamine], the “TLR7-agonistic activity, result in words” value is listed as “substantially weaker”.

With `Nc1nc2ccccc2c2c1nnn2Cc1ccccc1` [Compound 56, 1-Benzyl-1H-[1,2,3]triazolo[4,5-c]quinolin-4-amine], the “TLR7-agonistic activity, result in words” value was “completely inactive”.

On to `CC/N=C(/NCCCN(C)C)N(CC)Cc1nc2c(N)nc3ccccc3c2n1CC(C)(C)O` [Compound 6, 1-((4-Amino-1-(2-hydroxy-2-methylpropyl)-1H-imidazo[4,5-c]quinolin-2-yl)methyl)-3-(3-(dimethylamino)propyl)-1,2-diethylguanidine], for which the “TLR7-agonistic activity, result in words” value is recorded as “bereft of activity”.
